Measurements reported in ChEMBL document CHEMBL4251672, “Penicilindoles A-C, Cytotoxic Indole Diterpenes from the Mangrove-Derived Fungus Eupenicillium sp. HJ002” (J Nat Prod, 2018).
Structures can show the parent of a compound that is named as a salt. Calls of active or inactive are those of the source. No cut-off for these calls is given here.

Experiments:
A549 = assay: Cytotoxicity against human A549 cells assessed as decrease in cell viability by MTT assay; assay type: functional, cell-based
HeLa = assay: Cytotoxicity against human HeLa cells assessed as decrease in cell viability by MTT assay; assay type: functional, cell-based
Staphylococcus aureus [1] = assay: Antibacterial activity against methicillin-resistant Staphylococcus aureus ATCC 33591 at 20 uM; assay type: functional, organism-based
Bacillus cereus = assay: Antibacterial activity against Bacillus cereus ATCC 11778 at 20 uM; assay type: functional, organism-based
Staphylococcus aureus [2] = assay: Antibacterial activity against Staphylococcus aureus ATCC 25923 at 20 uM; assay type: functional, organism-based
HepG2 = assay: Cytotoxicity against human HepG2 cells assessed as decrease in cell viability by MTT assay; assay type: functional, cell-based
Vibrio alginolyticus = assay: Antibacterial activity against Vibrio alginolyticus ATCC 17749 at 20 uM; assay type: functional, organism-based
Vibrio parahaemolyticus = assay: Antibacterial activity against Vibrio parahaemolyticus ATCC 17802 at 20 uM; assay type: functional, organism-based
Escherichia coli = assay: Antibacterial activity against Escherichia coli ATCC 25922 at 20 uM; assay type: functional, organism-based

Structure (SMILES) | IC50 (A549) | IC50 (HeLa) | Activity (Staphylococcus aureus [1]) | Activity (Bacillus cereus) | Activity (Staphylococcus aureus [2]) | IC50 (HepG2) | Activity (Vibrio alginolyticus) | Activity (Vibrio parahaemolyticus) | Activity (Escherichia coli)
O=c1[nH]cc(F)c(=O)[nH]1 [FLUOROURACIL] | 36.8 µM | 28 µM |  |  |  |  |  |  | 
COc1cccc2c1C(=O)c1c(O)c3c(c(O)c1C2=O)C[C@@](O)(C(=O)CO)C[C@@H]3O[C@H]1C[C@H](N)[C@H](O)[C@H](C)O1 [DOXORUBICIN HYDROCHLORIDE] |  | 0.1 µM |  |  |  |  |  |  | 
CC(C)=CCC[C@@]12C(=O)CC[C@@H](C)[C@]1(C)CC[C@@](C)(O)[C@H]2Cc1c[nH]c2ccccc12 | 18.6 µM | 20 µM | inactive | inactive | inactive | 47.2 µM | inactive | inactive | inactive
CC(C)=CCC[C@@]12[C@@H](O)CC[C@@H](C)[C@]1(C)CC[C@@](C)(O)[C@H]2Cc1c[nH]c2ccccc12 | 5.5 µM | 23.3 µM | inactive | inactive | inactive | 1.5 µM | inactive | inactive | inactive
